Laboratory results reported in patent US20230287027A1, “ADJUVANT WITH TLR4 AGONIST ACTIVITY” (Sumitomo Pharma Co., Ltd, priority 2020, published 2023).

System: OVA-specific IgG2c
Test: Test 3: OVA-specific IgG2c in serum of immunized mice by ELISA
Assay type: in vivo, C57BL/6 male mouse
Details: mouse, intramuscular with OVA, liposome formulation, 10 or 100 μg/mouse, two immunizations, serum one week after the additional immunization; compared with the negative control group
Procedure: FIG. 1 is a graph showing the results of measuring OVA-specific IgG2c in immunized mouse serum in mice to which the formulation prepared in Example 6 or 7 was intramuscularly administered, by ELISA in Test 3. The vertical axis indicates the antibody titer of OVA-specific IgG2c in serum. The horizontal axis indicates the administered sample (administered dose in parentheses). 1: negative control group (phosphate buffered saline), 2: Example 6 administration group (the compound of Example 1, 10 μg/mouse), 3: Example 6 administration group (the compound of Example 1, 100 μg/mouse), 4: Example 7 administration group (the compound of Example 2, 10 μg/mouse), 5: Example 7 administration group (the compound of Example 2, 100 μg/mouse).
FIG. 2 is a graph showing the results of measuring OVA-specific IgG2c in immunized mouse serum in mice to which the formulation prepared in Reference Example 16 or Example 6 was intramuscularly administered, by ELISA in Test 3. The vertical axis indicates the antibody titer of OVA-specific IgG2c in serum. The horizontal axis indicates the administered sample (administered dose in parentheses). […]
An equal mixture of ovalbumin (OVA) (2 mg/mL) as an antigen and the formulation prepared in Example 6, Example 7, or Reference example 16 (containing 0.2 or 2 mg/mL the compound of Example 1, Example 2, or Reference example 9) was intramuscularly administered to the gastrocnemius of a 7-week-old C57BL/6 male mouse (100 μL/mouse), which was defined as the first immunization. […] The OVA-specific IgG2c value in each serum was measured by the following ELISA method. To 96-well plate, OVA solution (SIGMA) was added, 1% Skim Milk (Wako) was added for blocking, the serum sample which was diluted with phosphate buffer solution was added, caprine antimouse IgG2c (Southern Bio) as the secondary antibody was added, SureBlue™ TMB Micrewell Peroxidase Substrate (KPL) was added, and then the product of the enzymatic reaction was quantified with a microplate reader.

CCCCCCCCCCC[C@H](CC(=O)NC1C(OC[C@@H](NC(=O)C[C@@H](CCCCCCCCCCC)OC(=O)CCCCCCCCC)C(=O)O)OC(CO)C(O)C1OC(=O)C[C@@H](CCCCCCCCCCC)OC(=O)CCCCCCCCc1ccccc1)OC(=O)CCCCCCCCC (stereo partly drawn) [Example 1, (2R)-2-{[(3R)-3-(Decanoyloxy)tetradecanoyl]amino}-3-{[3-{[(3R)-3-(decanoyloxy)tetradecanoyl]amino}-5-hydroxy-6-(hydroxymethyl)-4-({(3R)-3-[(9-phenylnonanoyl)oxy]tetradecanoyl}oxy)oxan-2-yl]oxy}propanoic acid]
OVA-specific IgG2c induction: significantly strong

CCCCCCCCCCC[C@H](CC(=O)NC1C(OC[C@H](NC(=O)C[C@@H](CCCCCCCCCCC)OC(=O)CCCCCCCCC)C(=O)O)OC(CO)C(O)C1OC(=O)C[C@@H](CCCCCCCCCCC)OC(=O)CCCCCCCCc1ccccc1)OC(=O)CCCCCCCCC (stereo partly drawn) [Example 2, (2S)-2-{[(3R)-3-(decanoyloxy)tetradecanoyl]amino}-3-{[3-{[(3R)-3-(decanoyloxy)tetradecanoyl]amino}-5-hydroxy-6-(hydroxymethyl)-4-({(3R)-3-[(9-phenylnonanoyl)oxy]tetradecanoyl}oxy)oxan-2-yl]oxy}propanoic acid]
OVA-specific IgG2c induction: significantly strong

CCCCCCCCCCC[C@H](CC(=O)NC1C(OC[C@@H](NC(=O)C[C@@H](CCCCCCCCCCC)OC(=O)CCCCCCCCC)C(=O)O)OC(CO)C(OP(=O)(O)O)C1OC(=O)C[C@@H](CCCCCCCCCCC)OC(=O)CCCCCCCCc1ccccc1)OC(=O)CCCCCCCCC (stereo partly drawn) [Reference example 9, (2R)-2-{[(3R)-3-(Decanoyloxy)tetradecanoyl]amino}-3-{[3-{[(3R)-3-(decanoyloxy)tetradecanoyl]amino}-6-(hydroxymethyl)-4-({(3R)-3-[(9-phenylnonanoyl)oxy]tetradecanoyl}oxy)-5-(phosphonooxy)oxan-2-yl]oxy}propanoic acid, reference compound]
OVA-specific IgG2c induction: significantly strong
